# In BindingDB's records for doi:10.1111/j.1747-0285.2011.01215.x (Yeditepe University, 2011):
# Molecular target: Sigma non-opioid intracellular receptor 1 (Cavia porcellus, UniProt Q60492)
# Experiment: Sigma 1 Assay
# Conditions: pH 7.4; 37 °C
# Description: The test was performed with the radioligand [3H]-(+)-pentazocine (42.5 Ci/mmol) from Perkin Elmer.
# Sequence of Sigma non-opioid intracellular receptor 1 (Q60492 whole entry): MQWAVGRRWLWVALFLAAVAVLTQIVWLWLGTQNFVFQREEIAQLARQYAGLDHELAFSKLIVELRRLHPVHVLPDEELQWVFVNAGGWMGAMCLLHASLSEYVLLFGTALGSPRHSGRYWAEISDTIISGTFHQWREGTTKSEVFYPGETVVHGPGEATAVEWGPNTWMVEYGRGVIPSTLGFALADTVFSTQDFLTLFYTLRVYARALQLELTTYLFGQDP
row,SMILES,Ki [µM]
1,"Cc1cn(CN2CCN(CCc3ccccc3)CC2)c2ccccc12 [1-{[4-(substitutedphenyl/phenylethyl)piperazin1-yl]methyl}-3-methyl-1 H-indole, 3b]",0.0142
2,"Fc1ccc(N2CCN(CCCn3ccc4ccccc43)CC2)cc1 [1-{3-[4-(substitutedphenyl)piperazin1-yl]propyl}-1 H-indole, 4a]",0.456
3,"Fc1ccc(N2CCN(Cc3cn(CN4CCN(c5ccc(F)cc5)CC4)c4ccccc34)CC2)cc1 [1,3-di-{[4-(4-fluorophenyl)piperazin1-yl]methyl}-1 H-indole, 2a]",2.69
4,"c1ccc(N2CCN(CCCn3ccc4ccccc43)CC2)cc1 [1-{3-[4-(substitutedphenyl)piperazin1-yl]propyl}-1 H-indole, 4c]",1.49
5,"Cc1cn(CN2CCN(c3ccc(F)cc3)CC2)c2ccccc12 [1-{[4-(substitutedphenyl/phenylethyl)piperazin1-yl]methyl}-3-methyl-1 H-indole, 3a]",1
6,Fc1ccc(N2CCN(Cc3c[nH]c4ccccc34)CC2)cc1 [3-[[4-(4-fluorophenyl)piperazin-1-yl]methyl]-1H-indole],3.64

# Further molecules by falling Ki, results first:
row,Ki [µM],SMILES
1,0.264,"Fc1ccccc1N1CCN(CCCn2ccc3ccccc32)CC1 [1-{3-[4-(substitutedphenyl)piperazin1-yl]propyl}-1 H-indole, 4b]"
2,0.216,"Fc1ccc(F)c(CN2CCN(Cc3c[nH]c4ccccc34)CC2)c1 [3-{[4-(substitutedphenyl/benzyl)piperazin1-yl]methyl}-1 H-indole, 1b]"
3,0.126,"Clc1ccc(CN2CCN(Cc3c[nH]c4ccccc34)CC2)cc1Cl [3-{[4-(substitutedphenyl/benzyl)piperazin1-yl]methyl}-1 H-indole, 1c]"
